The test system of this experiment is BDF1 mice, intracerebral L1210 leukemia, survival T/C. The experiment is described as follows: NCI In Vivo Anticancer Drug Screen. Data for tumor model L1210 Leukemia (intracerebral) in B6D2F1 (BDF1) mice. As to conditions: higher = longer survival. The gist of the method:
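Antitumour effect is judged in mice with transplanted tumour by comparing survival of treated (T) against vehicle-dosed (C) groups as T/C.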

[1] abbreviates: endpoint: mean survival time, dose: 0.25 mg/kg/injection, schedule: Q01DX009 (ip), vehicle: saline.
The mark [2] stands for this setting: endpoint: mean survival time, dose: 2.0 mg/kg/injection, schedule: Q01DX009 (ip), vehicle: saline.

Several values for one entry are separate records, joined by “and”; a condition that tells them apart may be missing. Equal values may be shown once. Toxic doses and inconclusive results are not listed.

For `CN(N=O)C(=O)N[C@@H](C=O)[C@@H](O)[C@H](O)[C@H](O)CO`, the T/C is 105 % of control (endpoint: mean survival time, dose: 15.0 mg/kg/injection, schedule: Q01DX009 (ip), vehicle: saline); 98 % of control (endpoint: mean survival time, dose: 22.0 mg/kg/injection, schedule: Q01DX009 (ip), vehicle: other); 105 % of control (endpoint: mean survival time, dose: 30.0 mg/kg/injection, schedule: Q01DX005 (ip), vehicle: saline); 108 % of control (endpoint: mean survival time, dose: 30.0 mg/kg/injection, schedule: Q01DX009 (ip), vehicle: saline); 100 % of control (endpoint: mean survival time, dose: 33.0 mg/kg/injection, schedule: Q01DX009 (ip), vehicle: other); 95 % of control (endpoint: mean survival time, dose: 50.0 mg/kg/injection, schedule: Q01DX009 (ip), vehicle: other). Further, the T/C reads like this: (endpoint: mean survival time, dose: 60.0 mg/kg/injection, schedule: Q01DX005 (ip), vehicle: saline) 101 % of control; (endpoint: mean survival time, dose: 60.0 mg/kg/injection, schedule: Q01DX009 (ip), vehicle: saline) 109 % of control; (endpoint: mean survival time, dose: 75.0 mg/kg/injection, schedule: Q01DX009 (ip), vehicle: other) 94 % of control; (endpoint: mean survival time, dose: 113.0 mg/kg/injection, schedule: Q01DX009 (ip), vehicle: other) 93 % of control; (endpoint: mean survival time, dose: 120.0 mg/kg/injection, schedule: Q01DX005 (ip), vehicle: saline) 107 % of control; (endpoint: mean survival time, dose: 120.0 mg/kg/injection, schedule: Q01DX009 (ip), vehicle: saline) 113 % of control. Moreover, the T/C (endpoint: mean survival time, dose: 240.0 mg/kg/injection, schedule: Q01DX005 (ip), vehicle: saline) was 105 % of control.

`Cc1ncc(CNC(=O)N(CCCl)N=O)c(N)n1`: the T/C is 104 % of control (endpoint: mean survival time, dose: 6.25 mg/kg/injection, schedule: Q01DX001 (ip), vehicle: saline); 158 % of control (endpoint: mean survival time, dose: 6.25 mg/kg/injection, schedule: Q01DX009 (ip), vehicle: saline); 160 % of control (endpoint: mean survival time, dose: 12.5 mg/kg/injection, schedule: Q01DX009 (ip), vehicle: saline); 153 % of control (endpoint: mean survival time, dose: 25.0 mg/kg/injection, schedule: Q01DX001 (ip), vehicle: saline); 153 % of control (endpoint: mean survival time, dose: 50.0 mg/kg/injection, schedule: Q01DX001 (ip), vehicle: saline); 104 % of control (endpoint: mean survival time, dose: 100.0 mg/kg/injection, schedule: Q01DX001 (ip), vehicle: saline).

For the molecule `O=C(Nc1ccc(C2=NCCN2)cc1)c1ccc(C(=O)Nc2ccc(C3=NCCN3)cc2)cc1`, the T/C (endpoint: mean survival time, dose: 50.0 mg/kg/injection, schedule: Q01DX Z (ip), vehicle: carboxymethylcellulose (CMC)) is 107 % of control; the T/C (endpoint: mean survival time, dose: 100.0 mg/kg/injection, schedule: Q01DX Z (ip), vehicle: carboxymethylcellulose (CMC)) was 110 % of control; the T/C (endpoint: mean survival time, dose: 200.0 mg/kg/injection, schedule: Q01DX Z (ip), vehicle: carboxymethylcellulose (CMC)) was 121 % of control; the T/C (endpoint: mean survival time, dose: 250.0 mg/kg/injection, schedule: Q01DX Z (ip), vehicle: carboxymethylcellulose (CMC)) is 116 % of control; the T/C (endpoint: mean survival time, dose: 375.0 mg/kg/injection, schedule: Q01DX Z (ip), vehicle: carboxymethylcellulose (CMC)) is 97 % of control.

With `O=NN(CCCl)C(=O)NC1CCSCC1`, the T/C was 114 % of control (endpoint: mean survival time, dose: 3.0 mg/kg/injection, schedule: Q01DX001 (ip), vehicle: carboxymethylcellulose (CMC)); 152 % of control and 154 % of control (endpoint: mean survival time, dose: 5.0 mg/kg/injection, schedule: Q01DX001 (ip), vehicle: carboxymethylcellulose (CMC)); 161 % of control (endpoint: mean survival time, dose: 6.0 mg/kg/injection, schedule: Q01DX001 (ip), vehicle: carboxymethylcellulose (CMC)); 203 % of control and 208 % of control (endpoint: mean survival time, dose: 8.0 mg/kg/injection, schedule: Q01DX001 (ip), vehicle: carboxymethylcellulose (CMC)); 217 % of control (endpoint: mean survival time, dose: 9.0 mg/kg/injection, schedule: Q01DX001 (ip), vehicle: carboxymethylcellulose (CMC)); 245 % of control and 316 % of control (endpoint: mean survival time, dose: 12.0 mg/kg/injection, schedule: Q01DX001 (ip), vehicle: carboxymethylcellulose (CMC)). The T/C by setting is: (endpoint: mean survival time, dose: 14.0 mg/kg/injection, schedule: Q01DX001 (ip), vehicle: carboxymethylcellulose (CMC)) 286 % of control; (endpoint: mean survival time, dose: 18.0 mg/kg/injection, schedule: Q01DX001 (ip), vehicle: carboxymethylcellulose (CMC)) 230 % of control; (endpoint: mean survival time, dose: 21.0 mg/kg/injection, schedule: Q01DX001 (ip), vehicle: carboxymethylcellulose (CMC)) 155 % of control; (endpoint: mean survival time, dose: 27.0 mg/kg/injection, schedule: Q01DX001 (ip), vehicle: carboxymethylcellulose (CMC)) 94 % of control; (endpoint: mean survival time, dose: 32.0 mg/kg/injection, schedule: Q01DX001 (ip), vehicle: carboxymethylcellulose (CMC)) 93 % of control.

For the molecule `CC(CN1CC(=O)NC(=O)C1)N1CC(=O)NC(=O)C1` (stereo unspecified), the T/C by setting is: (endpoint: mean survival time, dose: 1.56 mg/kg/injection, schedule: Q03HX024 (ip), vehicle: steriod suspending solution) 108 % of control and 118 % of control; (endpoint: mean survival time, dose: 3.12 mg/kg/injection, schedule: Q03HX024 (ip), vehicle: steriod suspending solution) 162 % of control; (endpoint: mean survival time, dose: 12.5 mg/kg/injection, schedule: Q01DX009 (ip), vehicle: steriod suspending solution) 124 % of control; (endpoint: mean survival time, dose: 25.0 mg/kg/injection, schedule: Q03HX024 (ip), vehicle: steriod suspending solution) 180 % of control; (endpoint: mean survival time, dose: 50.0 mg/kg/injection, schedule: Q04DX003 (ip), vehicle: steriod suspending solution) 122 % of control; (endpoint: mean survival time, dose: 100.0 mg/kg/injection, schedule: Q01DX009 (ip), vehicle: steriod suspending solution) 97 % of control. In addition, the T/C was 104 % of control and 122 % of control (endpoint: mean survival time, dose: 108.0 mg/kg/injection, schedule: Q04DX003 (ip), vehicle: other); 108 % of control (endpoint: mean survival time, dose: 108.0 mg/kg/injection, schedule: Q04DX003 (ip), vehicle: steriod suspending solution); 104 % of control and 118 % of control (endpoint: mean survival time, dose: 180.0 mg/kg/injection, schedule: Q04DX003 (ip), vehicle: other); 108 % of control and 123 % of control (endpoint: mean survival time, dose: 180.0 mg/kg/injection, schedule: Q04DX003 (ip), vehicle: steriod suspending solution); 111 % of control (endpoint: mean survival time, dose: 200.0 mg/kg/injection, schedule: Q01DX001 (ip), vehicle: steriod suspending solution); 110 % of control (endpoint: mean survival time, dose: 400.0 mg/kg/injection, schedule: Q01DX001 (ip), vehicle: steriod suspending solution). The T/C was 107 % of control and 117 % of control (endpoint: mean survival time, dose: 500.0 mg/kg/injection, schedule: Q04DX003 (ip), vehicle: other); 111 % of control and 122 % of control (endpoint: mean survival time, dose: 500.0 mg/kg/injection, schedule: Q04DX003 (ip), vehicle: steriod suspending solution); 115 % of control and 86 % of control (2×) (endpoint: mean survival time, dose: 800.0 mg/kg/injection, schedule: Q04DX003 (ip), vehicle: steriod suspending solution); 103 % of control (endpoint: mean survival time, dose: 833.0 mg/kg/injection, schedule: Q04DX003 (ip), vehicle: Klucel (hydroxypropylcellulose) (HPC)); 116 % of control (endpoint: median survival time, dose: 16.0 mg/kg/injection, schedule: Q01DX009 (ip), vehicle: Klucel (hydroxypropylcellulose) (HPC)); 114 % of control (endpoint: median survival time, dose: 64.0 mg/kg/injection, schedule: Q01DX009 (ip), vehicle: Klucel (hydroxypropylcellulose) (HPC)). The T/C (endpoint: median survival time, dose: 108.0 mg/kg/injection, schedule: Q04DX003 (ip), vehicle: Klucel (hydroxypropylcellulose) (HPC)) was 118 % of control; the T/C (endpoint: median survival time, dose: 128.0 mg/kg/injection, schedule: Q01DX009 (ip), vehicle: Klucel (hydroxypropylcellulose) (HPC)) was 109 % of control and 123 % of control and 95 % of control.

As for `CC(=O)NC1=C(N2CC2)C(=O)C(NC(C)=O)=C(N2CC2)C1=O`, the T/C (endpoint: mean survival time, dose: 0.12 mg/kg/injection, schedule: Q01DX009 (ip), vehicle: saline with Tween-80) is 105 % of control; the T/C (endpoint: mean survival time, dose: 0.25 mg/kg/injection, schedule: Q01DX005 (ip), vehicle: saline with Tween-80) is 97 % of control; the T/C (endpoint: mean survival time, dose: 0.25 mg/kg/injection, schedule: Q01DX009 (ip), vehicle: saline with Tween-80) was 105 % of control; the T/C under setting [1] was 110 % of control and 117 % of control; the T/C (endpoint: mean survival time, dose: 0.5 mg/kg/injection, schedule: Q01DX005 (ip), vehicle: saline with Tween-80) was 105 % of control; the T/C (endpoint: mean survival time, dose: 0.5 mg/kg/injection, schedule: Q01DX009 (ip), vehicle: saline with Tween-80) was 108 % of control. Further, the T/C is 113 % of control (endpoint: mean survival time, dose: 0.5 mg/kg/injection, schedule: Q01DX Z (ip), vehicle: carboxymethylcellulose (CMC)); 111 % of control (endpoint: mean survival time, dose: 1.0 mg/kg/injection, schedule: Q01DX005 (ip), vehicle: saline with Tween-80); 115 % of control (endpoint: mean survival time, dose: 2.0 mg/kg/injection, schedule: Q01DX005 (ip), vehicle: saline with Tween-80); 96 % of control and 98 % of control under setting [2]; 119 % of control (endpoint: mean survival time, dose: 2.0 mg/kg/injection, schedule: Q01DX Z (ip), vehicle: carboxymethylcellulose (CMC)).

For `CCOC1=C(N2CC2)C(=O)C(OCC)=C(N2CC2)C1=O`, the T/C was 96 % of control under setting [1]; 109 % of control and 93 % of control (endpoint: mean survival time, dose: 0.5 mg/kg/injection, schedule: Q01DX009 (ip), vehicle: saline); 108 % of control and 98 % of control (endpoint: mean survival time, dose: 1.0 mg/kg/injection, schedule: Q01DX009 (ip), vehicle: saline); 112 % of control under setting [2]; 94 % of control (endpoint: mean survival time, dose: 4.0 mg/kg/injection, schedule: Q01DX009 (ip), vehicle: saline).

(Values after PubChem BioAssay AID252 (DTP/NCI, 2004).)
